Assay: Inhibition of melanization of DHICA by ultraviolet rays (absorbance at 405 nm, microplate)
Conditions: FL-20BLB fluorescent lamp, long wavelength UV, absorbance 405 nm
Protocol: DHICA can be synthesized by a known method. 0.01 to 1.0 mg/ml of DHICA or its sodium salt is dissolved in water or a buffer such as phosphate buffer and 100 to 200 μl amounts distributed into microplate wells. A fluorescent lamp or solar simulator or monochrometer is used to irradiate this with ultraviolet rays for 10 minutes to 3 hours, then the absorbance at 405 nm is measured by a microplate reader to evaluate the amount of black-brown melanin.
0.01 to 1.0 mg/ml of DHICA or its sodium salt is dissolved in water or a buffer such as a phosphate buffer and 100 to 200 μl amounts distributed into microplate wells. Compounds or plant extracts prepared at various concentrations are added in 1 to 100 μl amounts or before addition a fluorescent lamp or solar simulator or monochrometer is used to irradiate this with ultraviolet rays for 10 minutes to 3 hours, then the absorbance of 405 nm is measured by a microplate reader to evaluate the extent of black-brown melanin and evaluate the effect of the compound or plant extract.
The action of an inhibitor containing vitamin C and its derivatives as effective ingredients in inhibiting melanization of DHICA due to ultraviolet rays was evaluated by the following effect of inhibition of melanization of DHICA due to ultraviolet rays.
(§1) 0.01 to 1.0 mg/ml of DHICA or its sodium salt is dissolved in water and 100 μl amounts distributed into microplate wells. 100 μl of ascorbic acid or its derivative adjusted to various concentrations was added and an FL-20BLB fluorescent lamp used to irradiate long wavelength ultraviolet rays. The absorbance at 405 nm was measured by a microplate reader to evaluate the amount of black-brown melanin and evaluate the effect of the compound.
as §1, with “The action of an inhibitor containing 3-O-ethyl ascorbic acid as effective ingredients in inhibiting melanization of DHICA due to ultraviolet rays was evaluated by the following effect of inhibition of melanization of DHICA due to ultraviolet rays. 0.01” for “0.01”, “the extent” for “the amount”

Row | Compound | Rate of inhibition of UV-introduced melanization of DHICA (%) (sample concentration 0.01%) | Rate of suppression of UV-induced melanization of DHICA (%) (sample concentration 0.01%) | Rate of inhibition of UV-introduced melanization of DHICA (%) (sample concentration 0.1%) | Rate of suppression of UV-induced melanization of DHICA (%) (sample concentration 0.1%)
1 | CCOC1=C(O)C(=O)O[C@@H]1[C@@H](O)CO [3-O-ethyl ascorbic acid] | 40 | 40 | 80 | 80
2 | O=C1O[C@H]([C@@H](O)CO)C(O)=C1O[C@H]1O[C@H](CO)[C@@H](O)[C@H](O)[C@H]1O [AA-2G, Ascorbate-2-O-α-glucoside] |  |  | 20 | 20
3 | O=C1O[C@H]([C@@H](O)CO)C([O-])=C1OP(=O)([O-])[O-].O=C1O[C@H]([C@@H](O)CO)C([O-])=C1OP(=O)([O-])[O-].[Mg+2].[Mg+2].[Mg+2] [APM, Magnesium ascorbate phosphate ester] |  |  | 20 | 
4 | O=C1O[C@H]([C@@H](O)CO)C(O)=C1O [Ascorbic acid] |  |  | 70 | 70

— US20030134264A1, “Method of preventing darkening of skin or inhibiting melanization of melenin monomer and polymerization inhibitor of biological dihydroxyindole compound” (SHISEIDO COMPANY, LTD., priority 2001, published 2003)
